Source: PubChem BioAssay AID1919002 (Molecular Pharmacology Branch, DTP, NCI, 2023)
Where “and” joins values, the source holds several entries; their conditions need not be identical. Equal entries are not always repeated.

Test system: 743489-274-T-PDC complex spheroid growth
Assay: Anticancer human tumor 743489-274-T-PDC patient-derived renal cell carcinoma cell line growth inhibition [AhR]
Conditions: for viability, T/C: stronger effect = lower value
Excerpt: Multicellular complex tumor spheroid response to aryl hydrocarbon receptor antagonists in combination with a variety of drugs and investigational agents in selected tumor cell lines
The current study was undertaken to assess response to aryl hydrocarbon receptor antagonists in combination with standard-of-care drugs and investigational agents in solid tumor complex spheroid models. Complex spheroids include a stromal component modeled by human endothelial cells (HUVEC) and fibroblasts modeled by human mesenchymal stem cells (MSCs). The concentration ranges selected for each drug and investigational agent were based upon clinically achievable concentrations if the clinical Cmax of the agent was known.
Compounds. The drugs and investigational agents: BAY 2416964 (NSC825713), GNF351 (NSC835774), CH-223191 (NSC835775), CPI-455 (NSC825282), aza-TdCyd (NSC777586), decitabine (NSC127716), belinostat (NSC758774), entinostat (NSC756642), pevonedistat (NSC761192), tazemetostat (NSC777109), talazoparib (NSC765396), olaparib (NSC753686), selinexor (NSC780203), nedisertib (M3814, NSC802822), bortezomib (NSC756655), venetoclax (NSC766270), doxorubicin (NSC123127), elimusertib (BAY189344, NSC800525), ceralasertib (AZD6738, NSC777638), TAK-243 (NSC785004), alisertib (NSC759677), etoposide (NSC141540), topotecan (NSC609699), eribulin (NSC707389), gemcitabine (NSC613327), carboplatin (NSC241240), cisplatin (NSC119875), and SN-38 (NSC673596) were obtained from the National Cancer Institute (NCI) Developmental Therapeutics Program Chemical Repository (32). The FDA-approved anticancer drug set is available from the Developmental Therapeutics Program at https://dtp.cancer.gov/organization/dscb/obtaining/available plates.htm. […] The stock solutions were prepared in dimethyl sulfoxide (DMSO, Sigma-Aldrich, St. Louis, MO, cat. D2650), except for the platinum compounds which were prepared in saline (Quality Biological, Gaithersburg, MD, cat. 114-055-101), at 800-fold the tested concentration and stored at -70 degrees C prior to their use. All drugs and investigational agents were tested over a range starting from a high concentration at or near the clinical Cmax and decreasing in half-log increments. If the clinical Cmax for an agent had not been determined, the highest concentration tested was 10 microM (Table 1).
Cell Culture. All cells were maintained in an incubator at 37 degrees C and 5% CO2 with 95% humidity. The PDC lines were cultured according to standard operating procedures established by the NCI PDMR (https://pdmr.cancer.gov). Briefly, all PDCs were thawed and cultured in Matrigel-coated flasks prepared with a working solution of 1X Ham's F-12 nutrient mix, without supplementation (Invitrogen, Waltham, MA, cat. 11765054), 100 U/mL penicillin-streptomycin (Invitrogen, cat. 15140122), and 2.5% Matrigel (Corning Inc., Corning, NY, cat. 354248) for the first three passages. All PDCs were cultured in complete DMEM/F-12 media containing advanced DMEM/F-12 (Invitrogen, cat. 12634028), 4.9% defined fetal bovine serum, heat inactivated (HyClone Laboratories Inc., Logan, UT, cat. SH30070.03HI), 389 ng/mL hydrocortisone (Sigma-Aldrich, cat. H4001), 9.7 ng/mL human EGF recombinant protein (Invitrogen, cat. PHG0313), 23.4 microg/mL adenine (Sigma-Aldrich, cat. A2786), 97.3 U/mL penicillin-streptomycin (Invitrogen, cat. 15140122), 1.9 mM L-glutamine (Invitrogen, cat. 25030081), and 9.7 microM Y-27632 dihydrochloride (Tocris Bioscience, Bristol, United Kingdom, cat. 1254). The PDCs were cultured in complete DMEM/F12 media without 10 microM Y-27632 dihydrochloride for at least two passages prior to the screen. The established cell lines NCI-H1341 and […] were cultured in DMEM/F-12, HEPES (Invitrogen, cat. 11330032), 5% defined fetal bovine serum (HyClone Laboratories Inc., cat. SH30070.03), ITS premix universal culture supplement [insulin (5 microg/mL), transferrin (5 microg/mL), and selenious acid (5 ng/mL)] […]
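Further: spheroids exposed to agents for 7 days before readout.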
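Wherever viability, T/C is given: 100% = DMSO vehicle control wells.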

Compound	IC50 (curve of compound)	viability, T/C (compound 0.0316 µM)	viability, T/C (compound 0.1 µM)	viability, T/C (compound 0.316 µM)	viability, T/C (compound 1 µM)	viability, T/C (compound 3.16 µM)	viability, T/C (compound 10 µM)	also measured
CC(C)CC(NC(=O)C(Cc1ccccc1)NC(=O)c1cnccn1)B(O)O (stereo unspecified)	0.0513 µM and 0.0249 µM and 0.019 µM							viability, T/C (compound 0.000949 µM): 99.1% and 101% and 98%; viability, T/C (compound 0.003 µM): 95.6% and 109% and 101%; viability, T/C (compound 0.00949 µM): 106% and 110% and 101%; viability, T/C (compound 0.03 µM): 82.7% and 39.1% and 17.3%; viability, T/C (compound 0.0949 µM): 12.9% and 18.7% and 11.8%; viability, T/C (compound 0.3 µM): 11.7% and 8.88% and 4.65%
CC(C)c1c(-c2ccccc2)nc2c(C#N)c[nH]n2c1=O	> 10 µM	110% and 112% and 107%	110% and 105% and 109%	101% (2×) and 103%	109% and 104% and 112%	107% and 106% and 111%	101% and 107% and 102%	
CC(CO)NC(=O)c1cc(-c2ccc(Cl)cc2)nn(-c2cnn(C)c2)c1=O (stereo unspecified)				90% [middle of 21 runs]				IC50 (compound alone, run of 08/08/2022): > 10 µM
CC1(C)CCC(CN2CCN(c3ccc(C(=O)NS(=O)(=O)c4ccc(NCC5CCOCC5)c([N+](=O)[O-])c4)c(Oc4cnc5[nH]ccc5c4)c3)CC2)=C(c2ccc(Cl)cc2)C1	> 10 µM	109% and 96.8% and 101%	112% and 106% and 103%	112% (2×) and 103%	109% and 106% (2×)	120% and 117% and 108%	117% and 96.9% and 109%	
CC1COCCN1c1cc(-c2ccnn2C)c2ccnc(-c3ccn[nH]3)c2n1 (stereo unspecified)	> 1 µM	101% (2×) and 104%	106% and 102% and 103%	101% and 86.3% and 100%	85.1% and 68% and 73.8%			viability, T/C (compound 0.00316 µM): 112% and 105% and 104%; viability, T/C (compound 0.01 µM): 106% and 114% and 100%
CC1COCCN1c1cc(C2(S(C)(=N)=O)CC2)nc(-c2ccnc3[nH]ccc23)n1 (stereo unspecified)	> 10 µM	101% (2×) and 98.1%	109% and 103% and 97.3%	101% and 110% and 96.7%	94.8% and 103% and 108%	98.2% and 102% and 104%	99.1% and 92% and 114%	
CCN(c1cc(-c2ccc(CN3CCOCC3)cc2)cc(C(=O)NCc2c(C)cc(C)[nH]c2=O)c1C)C1CCOCC1	> 3 µM							viability, T/C (compound 0.00949 µM): 107% and 101% and 108%; viability, T/C (compound 0.03 µM): 102% and 103% and 122%; viability, T/C (compound 0.0949 µM): 102% and 86.6% and 107%; viability, T/C (compound 0.3 µM): 102% and 99.9% and 101%; viability, T/C (compound 0.949 µM): 94.9% and 104% and 108%; viability, T/C (compound 3 µM): 102% and 91% and 101%
CC[C@@]1(O)C(=O)OCc2c1cc1n(c2=O)Cc2cc3c(CN(C)C)c(O)ccc3nc2-1	> 0.1 µM	95% and 105% and 97.2%	96.3% and 83.8% and 91.8%					viability, T/C (compound 0.000316 µM): 109% and 97.4% and 106%; viability, T/C (compound 0.001 µM): 110% and 94.7% and 90.2%; viability, T/C (compound 0.00316 µM): 107% and 97.5% and 93.5%; viability, T/C (compound 0.01 µM): 100% and 103% and 93.5%
CCc1c2c(nc3ccc(O)cc13)-c1cc3c(c(=O)n1C2)COC(=O)[C@]3(O)CC	> 0.3 µM							viability, T/C (compound 0.000949 µM): 105% and 85% and 104%; viability, T/C (compound 0.003 µM): 105% and 102% and 103%; viability, T/C (compound 0.00949 µM): 102% and 85.4% and 107%; viability, T/C (compound 0.03 µM): 83% and 70.5% and 95.8%; viability, T/C (compound 0.0949 µM): 77.1% and 65.4% and 83.9%; viability, T/C (compound 0.3 µM): 68.5% and 50.5% and 59.9%
COc1cc(C2c3cc4c(cc3C(OC3OC5COC(C)OC5C(O)C3O)C3COC(=O)C23)OCO4)cc(OC)c1O (stereo unspecified)	> 10 µM	98.8% and 103% and 94.7%	105% and 103% and 102%	95.7% and 114% and 106%	94.6% and 100% and 98.3%	95.8% and 108% and 98.9%	80% and 91.7% and 92.8%	
COc1cc(Nc2ncc3c(n2)-c2ccc(Cl)cc2C(c2c(F)cccc2OC)=NC3)ccc1C(=O)O	> 10 µM	106% and 98.6% and 103%	105% and 95.3% and 116%	92% and 95.6% and 98.8%	91.3% and 90.4% and 99.3%	90.3% and 92.1% and 91.2%	102% and 87.5% and 94.5%	
COc1ccc([C@@H](O)c2cc(-c3ncnc4cc(N5CCOCC5)ccc34)c(F)cc2Cl)nn1	7.94 µM and 3.03 µM and 4.53 µM	107% and 116% and 95%	105% and 102% and 106%	94.2% and 93.8% and 101%	93.3% and 90.2% and 84.6%	65% and 45.8% and 61.5%	46.3% and 26% and 26.9%	
COc1cccc2c1C(=O)c1c(O)c3c(c(O)c1C2=O)CC(O)(C(=O)CO)CC3OC1CC(N)C(O)C(C)O1 (stereo unspecified)	> 10 µM and 5.59 µM and 6.23 µM	100% and 108% and 103%	102% and 110% and 125%	101% and 112% and 108%	107% and 105% and 103%	88% and 77.8% and 89.9%	65.5% and 21.7% and 22.8%	
Cc1ccccc1N=Nc1ccc(NC(=O)c2ccnn2C)c(C)c1			90.5% [middle of 20 runs]	90.9% [middle of 20 runs]	86.1% [middle of 20 runs]			IC50 (compound alone, run of 08/22/2022): > 10 µM
Cc1cncc(-c2nc(NCCc3c[nH]c4ccccc34)c3ncn(C(C)C)c3n2)c1			95.2% [middle of 20 runs]	94.5% [middle of 20 runs]				IC50 (compound alone, run of 08/16/2022): > 10 µM
Cn1ncnc1C1c2n[nH]c(=O)c3cc(F)cc(c23)NC1c1ccc(F)cc1 (stereo unspecified)	> 0.1 µM	97.2% and 95.4% and 95.6%	103% and 94% and 99.3%					viability, T/C (compound 0.000316 µM): 100% and 101% and 102%; viability, T/C (compound 0.001 µM): 105% and 111% and 108%; viability, T/C (compound 0.00316 µM): 95.8% and 107% and 98.2%; viability, T/C (compound 0.01 µM): 91.2% and 103% and 108%
NS(=O)(=O)OCC1CC(n2ccc3c(NC4CCc5ccccc54)ncnc32)CC1O (stereo unspecified)	> 10 µM	102% and 104% and 93.9%	105% and 121% and 96.2%	114% and 108% and 103%	132% and 136% and 138%	137% and 132% and 156%	150% and 128% and 161%	
Nc1ccccc1NC(=O)c1ccc(CNC(=O)OCc2cccnc2)cc1	6.73 µM and 5.17 µM and 5.09 µM	95% and 98.2% (2×)	91.3% and 103% (2×)	82.6% and 96.2% and 85.1%	75.5% and 87.3% and 72.5%	57.6% and 59% and 59.5%	45.6% and 37.9% and 39.1%	
Nc1ccn(C2OC(CO)C(O)C2(F)F)c(=O)n1 (stereo unspecified)	> 10 µM	92.4% and 67.2% and 87.8%	73.3% and 58.7% and 72.8%	69.8% and 60.6% and 73.5%	63% and 53.5% and 70.8%	71.4% and 61.4% and 66.6%	73.7% and 62.2% and 66.3%	
Nc1ncn(C2CC(O)C(CO)O2)c(=O)n1 (stereo unspecified)	> 1 µM	102% and 106% and 105%	90.8% and 93.7% and 102%	100% and 96.7% and 104%	94% and 93.5% (2×)			viability, T/C (compound 0.00316 µM): 94.8% and 98.8% and 101%; viability, T/C (compound 0.01 µM): 112% and 106% (2×)
Nc1ncn(C2CC(O)C(CO)S2)c(=O)n1 (stereo unspecified)	> 0.3 µM							viability, T/C (compound 0.000949 µM): 110% and 93.5% and 116%; viability, T/C (compound 0.003 µM): 104% and 98.1% and 105%; viability, T/C (compound 0.00949 µM): 96.2% and 94.2% and 111%; viability, T/C (compound 0.03 µM): 102% and 85.6% and 96.6%; viability, T/C (compound 0.0949 µM): 97.2% and 95% and 103%; viability, T/C (compound 0.3 µM): 97.2% and 89.2% and 103%
O=C(C=Cc1cccc(S(=O)(=O)Nc2ccccc2)c1)NO	> 10 µM and 4.74 µM	101% and 91.6% and 104%	95.5% and 88.6% and 91.7%	93.9% and 90.1% and 87.8%	84.5% and 64.3% and 93%	83.8% and 59.3% and 84.6%	59.8% and 39.6% and 51.1%	
O=C(C=Cn1cnc(-c2cc(C(F)(F)F)cc(C(F)(F)F)c2)n1)NNc1cnccn1	> 3 µM							viability, T/C (compound 0.00949 µM): 102% and 119% and 97.2%; viability, T/C (compound 0.03 µM): 104% and 110% (2×); viability, T/C (compound 0.0949 µM): 105% and 119% and 115%; viability, T/C (compound 0.3 µM): 115% and 107% and 129%; viability, T/C (compound 0.949 µM): 114% and 113% and 116%; viability, T/C (compound 3 µM): 93.8% and 94.4% and 92.8%
O=C(c1cc(Cc2n[nH]c(=O)c3ccccc23)ccc1F)N1CCN(C(=O)C2CC2)CC1	> 10 µM	95.7% and 110% and 102%	101% and 105% and 113%	103% (2×) and 97.1%	92.9% and 102% and 112%	102% and 101% and 109%	96.3% and 110% and 106%	
